Holding throughout (type): binding
The target in experiment [1] is T1, human galectin-1 (Gal-1) (Homo sapiens, UniProt P09382).
T1 construct: made in house; host or cells: Escherichia coli BL21 (DE3)
Kind of experiment: SPR assay, Gal-1 over immobilized biotin labeled GM1. The following applies: Gal-1, immobilized biotin labeled GM1 pentasaccharide, 298 K. On the procedure:
(§1) Biotin labeled GM1 pentasaccharide (from CFG) was dissolved into PBS buffer and connected covalently onto a streptavidin (SA) chip as the immobilized phase. […] Galectins in the sample buffer (20 mM PBS, pH7.5, 0.005% Tween 20) were as the flowing phase. Analytes with volume of 30 µl at various concentrations ordered from low to high were programmed to inject with a 30 µl/min flow rate under different sensorgrams. In order to correct for instrumental and concentration effects, a blank flow channel was used as reference. Specific binding analyses were identified by subtraction of the control channel. The kinetic analyses of molecular interactions were calculated according to the steady state affinity model by BIAcore T100 Evaluation software.
(In SPR one partner is held on a chip, and binding of the other changes the refractive index at the surface.)

A further experiment deals with T2, Gal-1-g3-L4 mutant (Homo sapiens, UniProt P09382, A56R/D55N/DEL52-52/G54N/H53E).
T2 construct: made in house; host or cells: Escherichia coli BL21 (DE3)
The experiment can be described thus: SPR assay, Gal-1-g3-L4 over immobilized biotin labeled GM1. Conditions: mutant Gal-1-g3-L4, immobilized biotin labeled GM1 pentasaccharide, 298 K. The method, then:
(§2) The mutants, Gal-1-g3-L4 and Gal-3-g1-L4, were designed by exchanging two loops, g1-L4 and g3-L4. These mutants were constructed using Quick Change Site Directed Mutagenesis method, and then the proteins were expressed and purified as above procedures.
as §1

Experiment [2] deals with T1, human galectin-1 (Gal-1). Kind of experiment: ITC assay, ligand titrating native Gal-1. The following applies: Gal-1, 298 K. The method, then:
(§3) The delayed time between injections is 180 s. For every ligands, at least three titrations were done. The dissociation constants (Kd) were calculated using the Origin Program and the experimental data were fitted to a one-set-of-sites model.

Experiment [3] deals with T3, Gal-1-g3-L4 (Gal-1-51ENNR54) mutant (Homo sapiens, UniProt P09382, A56R/D55N/DEL52-52/G54N/H53E).
T3 construct: made in house; host or cells: Escherichia coli BL21 (DE3)
Kind of experiment: ITC assay, ligand titrating mutant Gal-1-g3-L4. The following applies: mutant Gal-1-g3-L4, 298 K; for N, stochiometry (ITC): stochiometry fixed with a value of 1. The method, then:
as §2, §3
(In general: In ITC the heat of successive injections is recorded.)

A further experiment deals with T4, Gal-3-g1-L4 mutant (Homo sapiens, UniProt P17931, E165H/INS164A/N166G/N167D/R168A).
T4 construct: The molecule used in this study is a truncated CRD domain of Gal-3; made in house; host or cells: Escherichia coli BL21 (DE3)
Kind of experiment: SPR assay, Gal-3-g1-L4 over immobilized biotin labeled GM1. The following applies: mutant Gal-3-g1-L4, immobilized biotin labeled GM1 pentasaccharide, steady state affinity model, 298 K. On the procedure: as §2, §1

The target of experiment [4] is T5, Gal-3-g1-L4 (Gal-3 CRD-165AHGDA169) mutant (Homo sapiens, UniProt P17931, E165H/INS164A/N166G/N167D/R168A).
T5 construct: The molecule used in this study is a truncated CRD domain of Gal-3; made in house; host or cells: Escherichia coli BL21 (DE3)
Kind of experiment: ITC assay, ligand titrating mutant Gal-3-g1-L4. The following applies: for N, stochiometry (ITC): stochiometry fixed with a value of 1. On the procedure:
as §2, §3

The target in experiment [5] is T6, human galectin-3 CRD (Gal-3 CRD) (Homo sapiens, UniProt P17931).
T6 construct: The molecule used in this study is a truncated CRD domain of Gal-3; made in house; host or cells: Escherichia coli BL21 (DE3)
The experiment can be described thus: SPR assay, Gal-3 CRD over immobilized biotin labeled GM1. Conditions: immobilized biotin labeled GM1 pentasaccharide, steady state affinity model, 298 K. On the procedure: as §1

Experiment [6] deals with T7, human galectin-3 carbohydrate recognition domain (Gal-3 CRD) (Homo sapiens, UniProt P17931).
T7 construct: The molecule used in this study is a truncated CRD domain of Gal-3; made in house; host or cells: Escherichia coli BL21 (DE3)
Kind of experiment: ITC assay, ligand titrating native Gal-3 CRD. Conditions: 298 K. The method, then: as §3

Entries after “also recorded” stand apart in the source; their conditions may differ.

T5 sequence (P17931 with tags, fused parts or gaps INS164A/E165H/N166G/N167D/R168A): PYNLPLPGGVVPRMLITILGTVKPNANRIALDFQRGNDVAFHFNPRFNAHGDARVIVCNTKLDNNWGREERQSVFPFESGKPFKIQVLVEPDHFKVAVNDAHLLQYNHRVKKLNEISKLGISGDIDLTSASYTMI
T1 sequence (P09382 whole entry): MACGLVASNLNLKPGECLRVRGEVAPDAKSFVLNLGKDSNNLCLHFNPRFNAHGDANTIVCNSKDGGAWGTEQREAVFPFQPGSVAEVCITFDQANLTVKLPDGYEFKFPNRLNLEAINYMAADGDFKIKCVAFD
T7 sequence (P17931 118-248 limits assumed): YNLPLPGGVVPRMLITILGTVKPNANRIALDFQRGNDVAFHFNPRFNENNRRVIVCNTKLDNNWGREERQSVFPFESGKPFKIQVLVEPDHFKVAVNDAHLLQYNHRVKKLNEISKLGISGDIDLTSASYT
T3 sequence (P09382 with tags, fused parts or gaps DEL52-52/H53E/G54N/D55N/A56R): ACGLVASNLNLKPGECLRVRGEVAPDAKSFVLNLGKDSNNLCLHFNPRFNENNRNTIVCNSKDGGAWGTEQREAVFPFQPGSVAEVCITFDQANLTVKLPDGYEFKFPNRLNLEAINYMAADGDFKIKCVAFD
T6 sequence (P17931 118-248 limits assumed): as the sequence (P17931 118-248 limits assumed) above
T4 sequence (P17931 with tags, fused parts or gaps INS164A/E165H/N166G/N167D/R168A): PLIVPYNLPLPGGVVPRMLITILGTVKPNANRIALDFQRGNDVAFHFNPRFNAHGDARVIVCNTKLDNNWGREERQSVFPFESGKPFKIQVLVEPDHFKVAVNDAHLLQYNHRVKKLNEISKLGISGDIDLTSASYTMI
T2 sequence (P09382 with tags, fused parts or gaps DEL52-52/H53E/G54N/D55N/A56R): as the sequence (P09382 with tags, fused parts or gaps DEL52-52/H53E/G54N/D55N/A56R) above

In general, Kd refers to the constant that tells how readily two partners part at equilibrium. For the compound `CC(=O)N[C@H]1[C@H](O[C@@H]2[C@H](O[C@]3(C(=O)O)C[C@H](O)[C@@H](NC(C)=O)[C@H]([C@H](O)[C@H](O)CO)O3)[C@@H](O)[C@H](O[C@H]3[C@H](O)[C@@H](O)C(O)O[C@@H]3CO)O[C@@H]2CO)O[C@H](CO)[C@H](O)[C@@H]1O[C@@H]1O[C@H](CO)[C@H](O)[C@H](O)[C@H]1O` (some centres unmarked) [GM1, Galβ1-3GalNAcβ1-4[NeuAcα2-3]Galβ1-4Glc], the “Kd (SPR)” value is recorded as “No affinity” on human galectin-1 (Gal-1) [1] and “Low affinity” at Gal-1-g3-L4 mutant. The “Kd (ITC)” value was “can not recognize and interact; also recorded: does not bind; also recorded: No affinity” at human galectin-1 (Gal-1) [2]; “gains the TF-binding ability” in experiment [3]. The “-ΔH (ITC)” value in experiment [3] is listed as 10.3 kcal/mol; in experiment [4] (mutant Gal-3-g1-L4, 298 K), 3.2 kcal/mol; in experiment [6] (Gal-3 CRD), 4.0 kcal/mol. Also, the Kd in experiment [3] amounted to 568 µM; on Gal-3-g1-L4 mutant, 397 µM; in experiment [4] (mutant Gal-3-g1-L4, 298 K), 415 µM; in experiment [5], 62 µM. Also, the “ΔS (ITC)” value in experiment [3] is given as −19.8 cal/mol/deg; in experiment [4] (mutant Gal-3-g1-L4, 298 K), 4.7 cal/mol/deg; in experiment [6] (Gal-3 CRD), 6.0 cal/mol/deg. The “N, stochiometry (ITC)” value is 1.00 in experiment [3]; 1.00 in experiment [4] (mutant Gal-3-g1-L4, 298 K); 1.06 in experiment [6] (Gal-3 CRD).

Regarding `CC(=O)N[C@H]1[C@@H](Oc2ccc([N+](=O)[O-])cc2)O[C@H](CO)[C@H](O)[C@@H]1O[C@@H]1O[C@H](CO)[C@H](O)[C@H](O)[C@H]1O` [TFN, TF p-nitrophenyl], the “Kd (ITC)” value was “can not recognize; also recorded: does not bind; also recorded: No affinity” at human galectin-1 (Gal-1) [2]; “can bind and interact” in experiment [3]; “very lower affinity” in experiment [4] (mutant Gal-3-g1-L4, 298 K). Moreover, the “-ΔH (ITC)” value in experiment [3] stood at 1.5 kcal/mol; in experiment [4] (mutant Gal-3-g1-L4, 298 K), 3.9 kcal/mol; in experiment [6] (Gal-3 CRD), 4.6 kcal/mol. For the same compound, the Kd in experiment [3] came out at 719 µM; in experiment [4] (mutant Gal-3-g1-L4, 298 K), 543 µM. The “ΔS (ITC)” value worked out at 9.4 cal/mol/deg in experiment [3]; 1.9 cal/mol/deg in experiment [4] (mutant Gal-3-g1-L4, 298 K); 3.8 cal/mol/deg in experiment [6] (Gal-3 CRD). For the same compound, the “N, stochiometry (ITC)” value in experiment [3] is given as 1.00; in experiment [4] (mutant Gal-3-g1-L4, 298 K), 1.00; in experiment [6] (Gal-3 CRD) it was 1.21. Further, the “affinity relative to native Gal-3 (ITC)” value in experiment [4] (mutant Gal-3-g1-L4 compared to native Gal-3, 298 K) came to 12%; in experiment [6] (native Gal-3 CRD as reference), 100%.

Galβ1-3GalNAcα1-O-Ser/Thr [TF antigen]: at human galectin-1 (Gal-1) [2], the “-ΔH (ITC)” value was determined as 26.3 kcal/mol, the Kd worked out at 4000 µM and the “ΔS (ITC)” value is −77.2 cal/mol/deg. In addition, on human galectin-1 (Gal-1) [2] (stochiometry fixed with a value of 1), the “N, stochiometry (ITC)” value is 1.00. Besides, in experiment [6] (Gal-3 CRD), the “-ΔH (ITC)” value came to 1.9 kcal/mol; binding was characterised by a dissociation constant (Kd) of 47 µM; the “N, stochiometry (ITC)” value was 1.04; the “ΔS (ITC)” value was determined as 13.5 cal/mol/deg.

The values above are taken from publication PMC3176802, “Structural Basis for Distinct Binding Properties of the Human Galectins to Thomsen-Friedenreich Antigen” (PLoS ONE, 2011).
